Measured values: patent publication US7838511B2, “Compositions and methods for treating, preventing and/or ameliorating cancers, the onset of cancers or the symptoms of cancers” (The Board of Regents of the University of Texas System, priority 2003, dated 2010)

Key:
[1] = system: MCF-7 breast cancer cells; test: MCF-7 DNA synthesis (thymidine incorporation into cellular DNA); format: cell-based; conditions: 5 mM, mean ± SEM
Protocol: Studies were further performed to determine the mechanism by which ASA and PC-ASA reduced cell number. MCF-7 cells were again grown in the absence or presence of ASA and PC-ASA, and cell proliferation was assessed by measurement of titriated thymidine incorporation into cellular DNA.

[2] = system: MCF-7 breast cancer cells; test: MCF-7 breast cancer cell growth / cell number (MTT assay); format: cell-based; conditions: for Cell number (% control): mean ± SEM
Protocol: Using MCF-7 breast cancer cells grown in culture, a dose-response to aspirin (1.25 to 20 mM) was performed initially. After 48 hours of exposure to the various aspirin (acetyl salicylic acid, ASA) concentrations, mitochondrial 3-(4,5-dimethylthiazol-2-yl)-2,5-diphenyltetrazolium bromide (MTT) assays were performed. The MTT assay produces a measure of cell number and is used to monitor growth or inhibition of growth of the MCF-F breast cancer cells, i.e., measure the relative growth inhibitor activity of the compositions.
To test the relative growth inhibitor activity of phospholipid associated aspirin (PC-ASA) preparations, PC-ASA preparations were made having ASA concentrations that gave no more than 50% inhibition of growth (e.g., 2.5 and 5 mM) as shown in FIG. 2. In this example and in all subsequent examples, cell growth was assessed by measuring mitochondrial 3-(4,5-dimethylthiazol-2-yl)-2,5-diphenyltetrazolium bromide (MTT) activity. Those concentration of ASA were chosen so that any PC effects could be readily observed. After the preparation of the PC-ASA preparation, MCF-7 breast cancer cells were exposed for 48 hours to either ASA or a PC-ASA having the same ASA concentration.
MCF-7 breast cancer cells were grown in culture and exposed to aspirin (acetyl salicylic acid, ASA) and PC-ASA at equimolar concentrations. An assay was performed to estimate cell number.

[3] = system: SW-480 colon cancer cell line; test: SW-480 colon cancer cell number; format: cell-based; conditions: mean ± SEM
Protocol: (§1) PC-NSAIDs were also tested on another type of cancer, a colon cancer cell line, SW-480.

[4] = system: SW-480 colon cancer cell line; test: SW-480 colon cancer cell DNA synthesis; format: cell-based; conditions: mean ± SEM
Protocol: as §1

[5] = system: Leiomyosarcoma of the bladder; test: Bladder cancer (leiomyosarcoma) in a cat, ultrasonographic follow-up; format: in vivo, domestic cat; conditions: assessed by ultrasound
Protocol: To confirm that the PC-NSAIDs also have anti-cancer activity in vivo, a study has been performed on a domestic cat. As summarized in Table 3, the animal was diagnosed in December of 2003 with Leiomyosarcoma of the bladder, a particularly aggressive form of cancer.
The cat was treated surgically for resection of the tumor and was then placed on standard Vincristine chemotherapy for three weeks. […] Eventually, the tumor began to grow again and a treatment of lecithin combined with an NSAID, piroxicam, was begun. […] The cat is continuing to be treated with PC-piroxicam as of this filing.

MCF-7 cells = test: Lactate dehydrogenase (LDH) release (necrosis) of MCF-7 cells; format: cell-based; conditions: 0.6 mM, 5 hours; FIG. 4
Protocol: The growth inhibitor activity of the PC-ASA preparations on MCF-7 cells could be through increased apoptosis or necrosis or inhibition of cell proliferation. To differentiate between the first two possibilities, the effect of the PC-ASA preparations on release of the cytosolic enzyme lactate dehydrogenase (LDH) as a measure of necrosis were performed. For this study, MCF-7 cells were exposed to 2.5 and 5 mM ASA or PC-ASA preparations for 48 hours, as before. The media was collected and assayed for LDH activity (the assay is a kit available from Sigma Chemical Co., St. Louis, Mo.). To act as a positive control, some cells were exposed to a bile acid, 0.6 mM sodium deoxycholate (DOC), for 5 hours before LDH assay. […] Yet the ASA and PC-ASA preparations clearly reduce the number of MCF-7 cells at these concentrations. The most likely explanation for these findings is that the NSAIDs are inducing apoptosis rather than necrosis. This possibility is consistent with reports in the literature (see, e.g., Xiaojun L, Xie W, Reed D, Bradshaw W S, Simmons D L. Nonsteroidal antiinflammatory drugs cause apoptosis and induce cyclooxygenases in chicken embryo fibroblasts. Proc Natl Acad Sci USA 1995; 92:7961-7965.). Another possibility is that the PC-NSAID act by inhibiting cell proliferation.

Compound | DNA synthesis (% control) [1] [% Control] | Cell number (% control) ([2]; MCF-7, 5 mM) [% Control] | Cell number (% control) ([3]; 5 mM) | DNA synthesis (% control) ([4]; 5 mM) | Cell number (% control) ([3]; 1 mM) | DNA synthesis (% control) ([4]; 1 mM) | also measured
CC(=O)Oc1ccccc1C(=O)O [ASA, acetyl salicylic acid] | 85 ± 8 | 55 ± 3 | 68 ± 3 | 102 ± 4 | – | – | inhibition of growth ([2]; ASA 2.5 and 5 mM, MTT, FIG. 2): no more than 50%; ASA concentration with inhibitor effect on growth of the cells ([2]; MTT assay, 48 hours exposure, dose-response 1.25 to 20 mM, FIG. 2): ≥ 2.5 mM
CC(C)Cc1ccc(C(C)C(=O)O)cc1 (stereo not drawn) [IBU, ibuprofen] | – | – | – | – | 81 ± 2 | 79 ± 1 | –
CC[C@]1(O)C[C@H]2CN(CCc3c([nH]c4ccccc34)[C@@](C(=O)OC)(c3cc4c(cc3OC)N(C=O)[C@H]3[C@@](O)(C(=O)OC)[C@H](OC(C)=O)[C@]5(CC)C=CCN6CC[C@]43[C@@H]65)C2)C1 [Vincristine] | – | – | – | – | – | – | effect on tumor growth (in words) [5]: did not stop the remaining tumor growth
sodium deoxycholate [DOC] | – | – | – | – | – | – | LDH release (necrosis), positive control (MCF-7 cells): caused the release of cellular LDH
phosphatidylcholine [PC] | 41 ± 1 | 114 ± 3 | 106 ± 7 | 65 ± 4 | 106 ± 13 | 97 ± 5 | inhibiting the growth of the breast cancer cells (in words) ([2]; 2.5 and 5 mM, 48 hours, MTT, FIG. 3): did not adversely affect the growth of the cells; inhibiting the growth of the breast cancer cells (in words, Table 1) ([2]; MCF-7, 5 mM, equimolar): not effective at inhibiting the growth of the cells
